Measured values reported in patent EP0231151A2, “Immunosuppressant agents” (priority 1986, dated 1987).
One block for each compound: values may come before it.

Columns and labels:
[1] = target: 5-HT sensitive adenylate cyclase; test: Activation of 5-HT sensitive adenylate cyclase of the liver fluke (method of Markstein); format: biochemical; conditions: adenylate cyclase stimulated by serotonin
Description: A group of compounds comprises compounds which are D₂ agonists without any antagonistic activity. Another group of compounds includes those compounds which are serotonin agonists, e.g. as indicated in standard in vitro binding tests and by activation of 5-HT sensitive adenylate cyclase of the liver fluke according to the method of R.Markstein, Neurochemical effects of some ergot derivatives: A basis for their antiparkinson actions. J.Neural transm 51:39, (1981).
Examples of such compounds include compound C and pergolide. Compound C, pergolide and 5-HT have efficacies of 90,80 and 100 respectively and pD₂ [log EC₅₀] of 6.9, 6.9 and 7.7 respectively in this test on adenylate cyclase stimulated by serotonin.

adjuvant arthritis = test: Freund's adjuvant arthritis in the rat, hind limb thickness; format: in vivo; conditions: 0.1 mg/kg/day s.c. osmotic pump
Protocol: One test model is a rodent model of developing autoimmune adjuvant arthritis. An inhibition of the development of adjuvant arthritis is observed.
In one variante, Myobacterium Butyricum purchased from Difco Laboratories, Detroit, Michigan, was prepared in an emulsion with paraffin subliquidium PHHVI (Siegried Zofingen, Switzerland) at a concentration of 6 mg/ml. During ether anaesthesia a volume of 0.1 ml of this emulsion was injected with a 21 g 1-1/2 inch needle intracutaneously at the base of the tail of male Sprague-Dawley rats (ca 150-175 g). Arthritis occurred in 95% to 100% of the hind legs in the positive control animals. The hind limb (mid-tibial region) thickness was measured with a linear guage (Mitutoyo) coupled to an electronic digital readout (Mitutoyo).
100% of a control group developed adjuvant arthritis. The compounds of the invention are administered by means of a sub-cutaneously sustained osmotic pump, over 7 days or 14 days to groups of 5 animals. Progression of the arthritis and the inhibiting effect of a representative compound, compound B, at 0.1 mg/kg/day are as follows:-

[2] = tested on: basal serum prolactin levels; test: Lowering basal serum prolactin levels in the male rat (prolactin secretion inhibition); format: in vivo; conditions: Rattus norvegicus, 4 h, read-out: ID50 after 4 hours
Description: Many of the above mentioned compounds are published as prolactin secretion inhibitors, some of which are extremely potent and have long lasting activity. The potency of the compounds as prolactin secretion inhibitors can be determined in standard tests, e.g. by lowering basal serum prolactin levels in the male rat.
Results with representative compounds include:-

[3] = Acute toxicity (LD50) in the mouse; conditions: in vivo
Description: (§1) Toxicity data for some of the comounds of the invention have been published. Such data may be determined by routine experimentation. TOXICITY DATA for representative compounds NTEL = No toxic effect level.

[4] = No toxic effect level (NTEL), repeated oral dosing in rats; conditions: rat, in vivo, 26 weeks, p.o.
Description: as §1

[5] = No toxic effect level (NTEL) / tolerability, repeated oral dosing in dogs; conditions: dog, in vivo, no toxic effect level, 26 weeks, p.o.
Description: as §1

pD₂ [log EC₅₀] [1]: 6.9
SMILES: CCCN1C[C@H](CSC)C[C@@H]2c3cccc4[nH]cc(c34)C[C@H]21 [pergolide, 6-n-propyl-8α-methylmercaptomethyl-ergoline-I]

pD₂ [log EC₅₀] [1]: 7.7
efficacies ([1]; 5-HT = 100): 100
SMILES: NCCc1c[nH]c2ccc(O)cc12 [Compound 5-HT]

SMILES: CN1C[C@@H](NS(=O)(=O)N(C)C)C[C@@H]2c3cccc4c3c(cn4C)C[C@H]21 [Compound B, 1,6-dimethyl-8α-(N,N-dimethylsulphamoylamino)-ergoline-I]
Hind Limb Thickness (mm) (adjuvant arthritis; Day 0, 7 days dosing): 6.1 mm
Hind Limb Thickness (mm) (adjuvant arthritis; Day 0, 14 days dosing): 6.0 mm
Hind Limb Thickness (mm) (adjuvant arthritis; Day 3, 7 days dosing): 6.2 mm
Hind Limb Thickness (mm) (adjuvant arthritis; Day 3, 14 days dosing): 6.2 mm
Hind Limb Thickness (mm) (adjuvant arthritis; Day 6, 7 days dosing): 6.2 mm
Hind Limb Thickness (mm) (adjuvant arthritis; Day 6, 14 days dosing): 6.2 mm
Hind Limb Thickness (mm) (adjuvant arthritis; Day 9, 7 days dosing): 6.5 mm
Hind Limb Thickness (mm) (adjuvant arthritis; Day 9, 14 days dosing): 6.7 mm
Hind Limb Thickness (mm) (adjuvant arthritis; Day 12, 7 days dosing): 6.9 mm
Hind Limb Thickness (mm) (adjuvant arthritis; Day 12, 14 days dosing): 7.7 mm
Hind Limb Thickness (mm) (adjuvant arthritis; Day 15, 7 days dosing): 7.6 mm
Hind Limb Thickness (mm) (adjuvant arthritis; Day 15, 14 days dosing): 7.8 mm
Hind Limb Thickness (mm) (adjuvant arthritis; Day 18, 7 days dosing): 7.9 mm
Hind Limb Thickness (mm) (adjuvant arthritis; Day 18, 14 days dosing): 7.9 mm
Hind Limb Thickness (mm) (adjuvant arthritis; Day 21, 7 days dosing): 8.2 mm
Hind Limb Thickness (mm) (adjuvant arthritis; Day 21, 14 days dosing): 8.2 mm
ED50 [2]: 0.003 mg/kg

SMILES: CCN(CC)S(=O)(=O)N[C@H]1C[C@@H]2c3cccc4c3c(cn4CC)C[C@H]2N(C)C1 [Compound D, N,N-diethyl-Nʹ-[(8α)-1-ethyl-6-methyl-ergolin-8-yl]-sulfamide]
LD50 at 168 h ([3]; iv, over 7 days, read-out: acute LD₅₀ (mouse) i.v.): 44 mg/kg
LD50 at 336 h ([3]; po, over 14 days, read-out: acute LD₅₀ (mouse) p.o.): 992 mg/kg
NOAEL at 4368 h [4]: 5 to 17 mg/kg/day
NOAEL at 4368 h [5]: 0.3 mg/kg/day
